Assay results from patent publication US9388175B2, “2-aniline-4-aryl substituted thiazole derivatives” (Janssen Pharmaceutica N.V., priority 2005, dated 2016).
Where a name gives a salt, the structure may show the parent alone.

Legend:
[1] = biological target: T1, hα7-wt nAChR stably expressed in the GH4C1 cell line (Homo sapiens, UniProt P36544); experiment: Ca2+ flux imaging (FLIPR) of PAM activity with choline as agonist; type: cell-based; settings: efficacy relative to 100 μM choline alone (defined as 1); peak fluorescence, fluo-4AM; compounds tested 0.1 μM to 30 μM, efficacy criterion at 10 μM
T1 construct: expressed in transfected cells
T1 sequence (P36544 23-502): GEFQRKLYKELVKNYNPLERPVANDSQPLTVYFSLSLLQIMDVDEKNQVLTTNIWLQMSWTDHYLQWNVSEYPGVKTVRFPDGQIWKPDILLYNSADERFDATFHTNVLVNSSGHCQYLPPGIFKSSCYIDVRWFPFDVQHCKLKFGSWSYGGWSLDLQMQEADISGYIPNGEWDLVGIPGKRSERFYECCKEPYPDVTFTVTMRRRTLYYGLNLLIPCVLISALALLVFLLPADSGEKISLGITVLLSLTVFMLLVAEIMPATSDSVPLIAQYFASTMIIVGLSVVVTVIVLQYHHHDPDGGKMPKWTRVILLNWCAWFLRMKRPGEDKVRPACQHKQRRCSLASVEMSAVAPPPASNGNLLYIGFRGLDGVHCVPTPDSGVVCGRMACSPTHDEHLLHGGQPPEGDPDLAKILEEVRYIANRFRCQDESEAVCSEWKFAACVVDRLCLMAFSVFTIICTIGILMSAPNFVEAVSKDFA

| SMILES | melting point | Activity Range [1] |
| --- | --- | --- |
| CCOC(=O)Cc1sc(Nc2cc(Cl)ccc2Cl)nc1-c1ccncc1 [int. 30] | 156.8 to 163.5 °C | E (E denotes an efficacy from at least 4.5) |
| Cc1cc(Nc2nc(-c3ccc(Cl)nc3)cs2)ccc1F [Compound 2] | 175 °C | D (D denotes an activity range from 3.0 till 4.5) |
| O=C(NCc1sc(Nc2cccc(C(F)(F)F)c2)nc1-c1cccnc1)c1ccccc1 [Compound 164] | 215.5 to 218.9 °C | E (E denotes an efficacy from at least 4.5) |
| NC(=O)Cc1sc(Nc2cc(Cl)ccc2Cl)nc1-c1ccncc1 [Compound 113, 2-[(2,5-dichlorophenyl)amino]-4-(4-pyridinyl)-5-thiazoleacetamide] | 249.6 to 257.1 °C | E (E denotes an efficacy from at least 4.5) |
| OCc1sc(Nc2cc(Cl)ccc2Cl)nc1-c1ccccc1 [int. 23] | 172.8 to 175 °C | D (D denotes an activity range from 3.0 till 4.5) |
| COc1ccc(Nc2nc(-c3ccncc3)c(CO)s2)cc1 [Compound 122, 2-[(4-methoxyphenyl)amino]-4-(4-pyridinyl)-5-thiazolemethanol] | 126.2 to 126.8 °C | E (E denotes an efficacy from at least 4.5) |
| COCc1sc(Nc2cc(Cl)ccc2Cl)nc1-c1ccncc1 [Compound 136] | 205.3 to 205.8 °C | E (E denotes an efficacy from at least 4.5) |
| NC(=O)Cc1sc(Nc2cccc(C(F)(F)F)c2)nc1-c1ccccc1 [Compound 1, 2-[4-Phenyl-2-(3-trifluoromethyl-phenylamino)-thiazol-5-yl]-acetamide] | 186 to 187 °C | C (C denotes an activity range from 2.0 till 3.0) |
| CNC(=O)Cc1sc(Nc2cc(Cl)ccc2Cl)nc1-c1ccncc1 [Compound 163] | 237.2 to 244 °C | E (E denotes an efficacy from at least 4.5) |
| Fc1ccc(Nc2nc(-c3cnc4ccccn34)cs2)cc1C(F)(F)F (as salt: HCl) [Compound 9] | 248 °C |  |
| COc1cc(OC)c(Nc2nc(-c3ccc4c(c3)OCCO4)c(CC(N)=O)s2)cc1Cl [Compound 96, 2-[(5-chloro-2,4-dimethoxyphenyl)amino]-4-(2,3-dihydro-1,4-benzodioxin-6-yl)-5-thiazoleacetamide] |  | E (E denotes an efficacy from at least 4.5) |
| CS(=O)(=O)NCc1sc(Nc2cccc(C(F)(F)F)c2)nc1-c1cccnc1 [Compound 109] | 213.6 to 219.8 °C | E (E denotes an efficacy from at least 4.5) |
| Cc1cc(Nc2nc(-c3cccnc3)c(F)s2)ccc1F [Compound 83] |  | C (C denotes an activity range from 2.0 till 3.0) |
| COc1cc(OC)c(Nc2nc(-c3ccc(F)c(F)c3)c(CC(N)=O)s2)cc1Cl [Compound 130] |  | E (E denotes an efficacy from at least 4.5) |
| N#CCc1sc(Nc2cccc(C(F)(F)F)c2)nc1-c1ccc(Cl)cc1Cl [Compound 23, [4-(2,4-Dichloro-phenyl)-2-(3-trifluoromethyl-phenylamino)-thiazol-5-yl]-acetonitrile] |  | D (D denotes an activity range from 3.0 till 4.5) |
| CC(=O)c1sc(Nc2cc(Cl)ccc2Cl)nc1C [Compound 110] |  | E (E denotes an efficacy from at least 4.5) |
| COC(=O)CCc1sc(Nc2ccc(OC)cc2)nc1-c1ccc(OC)cc1 [Compound 173, 5-Thiazolepropanoic acid, 4-(4-methoxyphenyl)-2-[(4-methoxyphenyl)amino]-, methyl ester] |  | D (D denotes an activity range from 3.0 till 4.5) |
| CCOC(=O)c1sc(Nc2cccc(C(F)(F)F)c2)nc1C(F)(F)F [Compound 147] |  | E (E denotes an efficacy from at least 4.5) |
| CNC(=O)c1sc(Nc2cc(Cl)c(OC)cc2OC)nc1-c1ccncc1 [Compound 105] |  | E (E denotes an efficacy from at least 4.5) |
| CCCc1nc(Nc2cccc(C(F)(F)F)c2)sc1C(=O)OCC [Compound 155] |  | E (E denotes an efficacy from at least 4.5) |
| CCOC(=O)c1sc(Nc2cccc(C(F)(F)F)c2)nc1C1CC1 [Compound 145] |  | E (E denotes an efficacy from at least 4.5) |
